Reference: US11434490B2, “Fluorogen-binding RNA aptamers” (CENTRE NATIONAL DE LA RECHERCHE SCIENTIFIQUE, priority 2017, dated 2022)

Legend:
[1] = Fluorescence titration, binding affinity for TO1-Biotin; conditions: for Kd: ligand TO1-B (TO1-Biotin)
Text: (§1) FIG. 2|RNA Mango I, II, III and IV core sequences and their properties. (a) Color coded alignment of RNA Mango I, II, III and IV. G residues in yellow are protected from DMS cleavage (data from panel d) when folded in the presence of fluorophore. Quadruplex stacks and their associated propeller sequences are numbered 1 through 4. The GAAA isolation motif of Mango I, together with two adenines essential for binding, are shown in green and red respectively. Purple shading represents a flanking stem region common for all four Mango aptamers. Schematic: A tertiary structure schematic of Mango I, showing tier 1, 2 and 3 of its quadruplex structure (T1, T2 and T3) and color-coded as in (a). […] Bottom: Top view of the Mango I core (PBD ID: 5V3F), showing the T3 tier of the quadruplex and relevant propeller residues, color coding matches the schematic and panel a. […] KD values are shown next to each titration. (c) Same as for panel b but using 20 nM TO3-Biotin. Data for panels b and c have been normalized such that Mango I has a maximum fluorescence of 1. Error bars are standard deviation of three replicates. (d) DMS chemical protection patterns for the four Mango aptamers. 3′ end-labelled RNA (terminal ^32pCp shown as a black asterisk) was subjected to DMS chemical modification followed by reduction by NaBH4 and aniline cleavage as described in the methods. […] Legend: T1—denatured T1 ladder; OH—partial alkaline hydrolysis ladder; (−) DMS—denatured reaction with ddH2O added in place of DMS; 80° C.
(§2) Fluorescence data was gathered using a Varian Cary Eclipse Spectrophotometer unless otherwise stated. […] Fluorescence was measured at the maximum excitation and emission wavelengths of each complex (FIG. 13).
Where F([RNA]) is the fluorescence as a function of RNA concentration [RNA], Fmax is the maximal fluorescence of the bound complex and Funbound the fluorescence of the unbound fluorophore. When the fluorescence of Funbound was undetectable, it was set to zero.
(§3) Fluorescence readings were recorded using a Varian Cary Eclipse Spectrophotometer set to measure at the maximum excitation and emission wavelengths of the Mango II aptamer dye complex. Fluorescence titrations were performed in Mango selection buffer (WB: 140 mM KCl, 1 mM MgCl2, 10 mM NaH2PO4 pH 7.2, 0.05% Tween-20).

[2] = Fluorescence enhancement of TO1-Biotin; type: biochemical; conditions: ligand TO1-B; calculated relative to wt from the binding titration
Experimental: (§4) The bandwidth for all measurements was 1.5 nm for all experiments. Measurements were performed in a 0.2 cm path length cuvette in a background of 20 mM MOPS pH 7.0, 150 mM KCl, 10 μM EDTA. Fluorescence readings were taken in the absence of RNA at a ligand concentration of 0.82 μM. A concentrated, annealed stock of RNA was then added to the cuvette resulting in a final concentration of 2 μM RNA and allowed to equilibrate for 1 minute prior to taking an emission reading. Fluorescence enhancement was determined by dividing the fluorescence signal of ligand in the presence of RNA by the fluorescence signal in the absence of RNA corrected for the background of the instrument.

[3] = Fluorescence titration, binding affinity for TO3-Biotin; conditions: ligand TO3-B (TO3-Biotin)
Text: as §1, §2
Or to the following equation for TO3-Biotin and NMM experiments: F([RNA])=Fmax[RNA]/(KD+[RNA])+Funbound (Eq. 2) Fmax was determined using Eq. 1 or Eq. 2 as appropriate. Temperature Dependent Fluorescence and UV Melting Curves
as §3

[4] = Fluorescence enhancement of TO3-Biotin; type: biochemical; conditions: ligand TO3-B; calculated relative to wt from the binding titration
Experimental: as §4

[5] = cited from earlier work
HEK293T cells = assay: Cellular imaging of transfected Mango tagged RNAs; type: cell-based; conditions: fixed cells
Experimental: HEK293T cells were grown in Dulbecco Modified Eagle's Medium containing 10% Fetal Bovine Serum, 2 mM D-Glucose, 2 mM L-Glutamine, 1 mM Sodium Pyruvate and 100 U/ml Penicillin/Streptomycin (Thermo Fisher) and maintained at 37° C. with 5% CO2 in a humidified incubator. Cells used for imaging were cultured in Ibidi glass bottomed 8-well chamber slides (Ibidi GmbH).
RNA was transfected directly into 8-well chamber slides using the Lipofectamine-based CRISPRMAX reagent following the manufacturers guidelines (Invitrogen). Initially 125 nM RNA containing 10 mM Sodium Phosphate buffer (pH 7.2), 100 mM KCl and 1 mM MgCl2 was incubated at room temperature followed by a 1:1 dilution in OptiMEM prior to transfection. The RNA transfected was incubated at 37° C. for 1 hour in complete growth medium.
Cells were fixed in PBS containing 4% paraformaldehyde for 10 min on ice (Thermo Fisher) followed by permeabilization in 0.2% Triton X-100 for 10 min at room temperature. Cells were first blocked (2% BSA in PBS) for 30 min followed by primary antibody (1:50-1:500 dilutions) incubation for 120 min in blocking solution.
Primary antibodies used here were: Anti-Ribosomal Protein S6 (MAB5436, R&D Systems), Anti-ATP5B (ab14730, Abcam), Anti-GW182 (ab7052, Abcam), Anti-EEA-1 (ab70521, Abcam), Anti-LSm3 (NBP2-14206, Novus Biologicals), Anti-TIAR (sc-398372, Santa Cruz). Secondary antibodies used were Donkey Anti-mouse and Donkey Anti-Rabbit Alexa Fluor 680 (Molecular Probes). Primary antibodies were washed three times for 20 min each in blocking solution followed by incubation with secondary antibody at 1:500 dilution for 60 min, which was subsequently washed as above.
To visualize the nuclear boundary in live cells, a plasmid expressing a fluorescently tagged histone protein (EBFP2-H2B-6, Addgene plasmid 55243) was transfected using FuGene 6 (Promega) 24 h prior to RNA transfection. […] Following incubation of the RNA transfection, the cells were washed once with PBS and replaced with live-cell imaging media (Fluorobrite DMEM supplemented with 20 mM HEPES, Invitrogen). Live and fixed cell images were taken using a Zeiss Elyra wide-field microscope by exciting at 405 nm (Blue), 488 nm (Green) and 642 nm (Far-Red) and detecting at 420-480 nm, 495-550 nm and >650 nm, respectively. Live cells were maintained at 37° C. with 5% CO2 in a stage top incubator (Tokai Hit). Images were processed using FIJI and spot detection analysis was performed on each maximum projection by the spot detector plugin in the ICY image analysis software, which detects significant foci with a pixel area 3×3 pixels.

[6] = Salt dependence of Mango/TO1-Biotin fluorescence: K+ titration; type: binding; conditions: 25 nM RNA, 50 nM TO1-Biotin, 10 mM Tris pH 7.2
Experimental: (§5) FIG. 10|Salt dependence of new Mango variants. Dependence of fluorescence of each Mango for (a) K^+, (b) Na^+ in place of K^+, and (c) Mg^2+ ions in a buffer containing 140 mM K^+. […] 10 mM Tris buffer (pH 7.2) was used in place of phosphate of the WB buffer to avoid monovalent counter ions. Color-coding is as follows: Black—Mango I, Blue—Mango II, Green—Mango III, Orange—Mango IV. Hill coefficients are fitted to dark points. Points in lighter shade have been excluded from the fit. Error bars are standard deviations of three replicates.

[7] = Salt dependence of Mango/TO1-Biotin fluorescence: Na+ in place of K+; type: binding
Experimental: as §5

[8] = Salt dependence of Mango/TO1-Biotin fluorescence: Mg2+ titration; conditions: in the presence of potassium; Mg2+ 256 mM
Experimental: as §5

[9] = Brightness and photophysics of Mango fluorophore complexes; type: physicochemical
Text: as §1
FIG. 13|Photophysics: excitation/emission. (a) Excitation (dark curve) and emission (light curve) spectra of each Mango. All Mangos have Δex max=510 nm and Δem max=535 nm. Color-coding is as follows: Black—Mango I, Blue—Mango II, Green—Mango III, Red—Mango IV.
as §2

[10] = Formaldehyde resistance assay; type: physicochemical; conditions: in vitro, TO1-Biotin
Experimental: FIG. 15|Effect of formaldehyde on Mango fluorescence. […] In (b) RNA is incubated with the corresponding amounts of formaldehyde first for one hour, then TO1-Biotin is added. Data for each panel is normalized to RFU at the 0% formaldehyde, 0 min point.
RNA Mango aptamers were incubated with TO1-Biotin in WB buffer for at least one hour until equilibrium fluorescence was reached. […] Fluorescence was measured as a kinetic run at a rate of 2 readings per minute using a Varian Cary Eclipse Fluorescence Spectrophotometer, ex/em=510±2.5/535±5 nm.

[11] = Photobleaching under constant illumination; conditions: identical illumination conditions, on average
Experimental: FIG. 16|Formation of 5S-Mango foci and their dynamics in live cells. (a) 5S-Mango IV imaged post cell fixation at 5, 15, 30 and 60 mins after transfection using Lipofectamine based CRISPRMAX transfection reagent. […] (c) Root mean-squared displacement (RMSD) of three observed foci with different diffusive behaviors, fast (Green), slow (Blue) and static (Red) shown in Video 3. Scale bars are 10 μm and arrows indicate foci of interest. (d) Normalized photobleaching traces of 5S-F30-Mango I and IV compared to 5S-F30-dBroccoli under constant illumination with an exposure time of 200 ms. Photobleaching half-lives are stated in the table adjacent and were calculated from an exponential fit of each curve.

Question: With “Mango II - A12U: Mango-II point mutant; SEQ ID NO: 6908 (GGCACGUACGAAGGUGAGGAGAGGAAGAGGAGAGUACGUGC; chemistry not given here)” as the compound, how does the Kd [1] read?
Answer: 0.4 ± 0.07 nM

Question: What about the “FIE (fluorescence enhancement) †” value [2] of the same compound?
Answer: 1342 †

Question: Which Kd [1] does the source give for “Mango II - A22G: Mango-II point mutant; SEQ ID NO: 6907 (GGCACGUACGAAGGAGAGGAGAGGGAGAGGAGAGUACGUGC; chemistry not given here)” here?
Answer: 6.4 ± 1.5 nM

Question: And the Kd [3]?
Answer: 7.6 ± 3.7 nM

Question: What about the “FIE (fluorescence enhancement) †” value [2] of the same compound?
Answer: 1224 †

Question: And the “FIE (fluorescence enhancement) †” value [4]?
Answer: 52 †

Question: For “Mango II - A22C: Mango-II point mutant; SEQ ID NO: 6906 (GGCACGUACGAAGGAGAGGAGAGGCAGAGGAGAGUACGUGC; chemistry not given here)”, which Kd [1] is on record?
Answer: 0.9 ± 0.2 nM

Question: And the Kd [3]?
Answer: 5.1 ± 1.4 nM

Question: What about the “FIE (fluorescence enhancement) †” value [2] of the same compound?
Answer: 1407 †

Question: And the “FIE (fluorescence enhancement) †” value [4]?
Answer: 37 †

Question: What does the source list for `CN1C(=Cc2cc[n+](C)c3ccccc23)Sc2ccccc21` [TO1, Thiazole Orange]?
Answer: fluorescence quantum yield ϕ ([5]; aqueous solution): 2×10^−4; intracellular half-life [5]: short intracellular half-life; membrane permeability [5]: plasma and nuclear membrane permeability; fluorescence quantum yield ([5]; inserted into double-stranded helical nucleic acids): 0.11

Question: Which results are given for “Mango II - A15U A20U A25U A26U A31U: Mango-II five-fold mutant; SEQ ID NO: 6910 (GGCACGUACGAAGGUGAGGUGAGGUUGAGGUGAGUACGUGC; chemistry not given here)”?
Answer: Kd [1]: 1.92 ± 0.39 nM; FIE (fluorescence enhancement) † [2]: 1133 †

Question: What does the source list for “5S-F30-Mango IV: 5S rRNA tagged with Mango IV in F30 scaffold; SEQ ID NO: 6894”?
Answer: foci formation after transfection (HEK293T cells): consistently exhibit visible foci; fraction of foci that are clearly nuclear (HEK293T cells): ~5%; fraction of foci that are cytoplasmic (HEK293T cells): ~85%; mean intensity of foci against 5S-F30-Control background (HEK293T cells; 200 nM TO1-Biotin): two to three-fold higher

Question: For “Mango II - A15U A20U A25U: Mango-II triple mutant; SEQ ID NO: 6911 (GGCACGUACGAAGGUGAGGUGAGGUAGAGGAGAGUACGUGC; chemistry not given here)”, which Kd [1] is on record?
Answer: 0.76 ± 0.24 nM

Question: What about the “FIE (fluorescence enhancement) †” value [2] of the same compound?
Answer: 1329 †

Question: Which Kd [1] does the source give for “Mango II - A17U: Mango-II point mutant; SEQ ID NO: 6909 (GGCACGUACGAAGGAGAGGUGAGGAAGAGGAGAGUACGUGC; chemistry not given here)” here?
Answer: 1 ± 0.16 nM

Question: What about the “FIE (fluorescence enhancement) †” value [2] of the same compound?
Answer: 1237 †

Question: What does the source list for “Mango-IV: minimal construct engineered from isolate R5-NMM-5”?
Answer: TO1-Biotin binding affinity (in words) [1]: slightly weaker affinities than Mango-I; decrease in binding affinity on replacing CGA with GAA ([1]; Mango-IV sequence variant against Mango-IV): four-fold; Kd [6]: 64 ± 24 mM; Hill Coefficients K^+ ([6]; * estimated from initial rise of fluorescence): 1.5 ± 0.2*; fluorescence in the presence of sodium ions [7]: limited fluorescence response; effect of high levels of Mg^2+ on fluorescence [8]: significantly resistant; brightness of the TO1-Biotin bound complex ([9]; TO1-Biotin complex): 32,000 M^−1cm^−1; brighter than Mango-I ([9]; TO1-Biotin, FIG. 2b): 3 fold; resistance to formaldehyde [10]: substantially resistant to formaldehyde; bleaching half-lives longer than RNA Spinach [11]: 10 times
